Biological target: human α7 nAChR (Homo sapiens (Human), UniProt P36544)
Assay: Automated patch-clamp electrophysiology functional assay (Assay A)
Assay type: cell-based
Settings: IonFlux HT whole-cell population patch, HEK cells expressing human α7/RIC-3, 40 μM acetylcholine
Experimental: The α7 nAChR positive allosteric modulator (PAM) activity of the present compounds may be tested using assays known in the art. The α7 nAChR PAMs described herein have activities in an automated patch-clamp electrophysiology functional assay as described in the examples. The assay was performed using the IonFlux HT in a whole-cell, population patch configuration. See Golden et al. Assay Drug Dev. Technol. (2011) 9:608-619. The compounds were assessed for their ability to modulate the function of the human α7 nAChR stably expressed in a HEK cell line both in the presence, and in the absence of the natural α7 agonist acetylcholine. By performing a series of such measurements at different concentrations, the effective concentration of the α7 nAChR PAMs (EC50) was determined. See Spencer et al. Assay Drug Dev. Technol. (2012) 10:313-324.
Direct activation of α7 (agonism), and potentiation of acetylcholine-evoked α7 currents was determined as follows:
Automated Patch-Clamp Electrophysiology Functional Assay (Assay A)
Automated patch-clamp electrophysiology was performed using the IonFluxHT (Fluxion Biosciences Inc., San Francisco, CA) in the whole-cell, population patch configuration. Test compounds were assessed for their ability to modulate the function of the α7 nicotinic acetylcholine receptor both in the presence, and in the absence of the natural α7 agonist acetylcholine. A HEK cell line stably expressing both human RIC-3 and human α7 (PrecisION hnAChR α7/RIC-3, Eurofins Pharma, St. Charles, MO) was cultured in 175 cm^2 triple-layer tissue culture flasks to no more than 90% confluency in DMEM/F-12 growth media supplemented with 10% heat-inactivated fetal bovine serum, 1% non-essential amino acids, 0.625 μg/mL Puromycin, and 400 μg/mL Geneticin. Immediately prior to assay, cells were detached by first aspirating growth media, rinsing with Dulbecco's phosphate buffered saline, and then adding 10 mL of Accutase (Innovative Cell Technologies, San Diego, CA) to the flask and then incubating at 37° C. for 5 minutes. Detached cells were then recovered by the addition of 40 mL of CHO-serum-free media supplemented with 25 mM HEPES, and rocked gently in a 50 mL conical tube for 20 minutes prior to patch-clamp assay. After recovery, cells were pelleted by centrifugation at 1,000 RPM for 1 minute in a compact bench top centrifuge; recovery media was aspirated and cells were resuspended in external recording solution (150 mM NaCl, 5 mM KCl, 2 mM CaCl2), 1 mM MgCl2, 10 mM HEPES, 12 mM dextrose) to a density of 5.0×10^6 cells/mL. The cell suspension was added to the cell inlet wells on an IonFlux HT population patch plate which had previously been rinsed and primed with deionized H2O. Test compounds were serially diluted in DMSO and then resuspended to the final test concentration in external recording solution, with, or without 40 μM acetylcholine added to the external recording solution; test compounds were then transferred to the IonFlux HT population patch plate. Internal recording solution (110 mM TrisPO4, 28 mM TrisBase, 0.1 mM CaCl2), 2 mM MgCl2, 11 mM EGTA, 4 mM MgATP) was added to the internal recording solution inlet wells on the IonFlux HT patch plate previously loaded with cells and test compounds, and the plate loaded into the IonFlux HT instrument. A protocol was executed on the IonFlux HT to trap the cells, break into the cells, and establish the whole-cell recording configuration; cells were voltage-clamped at a holding potential of −60 mV for the duration of the experiment, all experiments were conducted at room temperature, and the IonFlux HT injection pressure was 8 psi for solution applications. Upon establishing the whole-cell configuration, external recording solution was perfused into the recording chambers for 120 seconds and then 40 μM acetylcholine was applied for 1 second and immediately washed off with external recording solution for 60 seconds. […]

Chain of human α7 nAChR (P36544 23-502): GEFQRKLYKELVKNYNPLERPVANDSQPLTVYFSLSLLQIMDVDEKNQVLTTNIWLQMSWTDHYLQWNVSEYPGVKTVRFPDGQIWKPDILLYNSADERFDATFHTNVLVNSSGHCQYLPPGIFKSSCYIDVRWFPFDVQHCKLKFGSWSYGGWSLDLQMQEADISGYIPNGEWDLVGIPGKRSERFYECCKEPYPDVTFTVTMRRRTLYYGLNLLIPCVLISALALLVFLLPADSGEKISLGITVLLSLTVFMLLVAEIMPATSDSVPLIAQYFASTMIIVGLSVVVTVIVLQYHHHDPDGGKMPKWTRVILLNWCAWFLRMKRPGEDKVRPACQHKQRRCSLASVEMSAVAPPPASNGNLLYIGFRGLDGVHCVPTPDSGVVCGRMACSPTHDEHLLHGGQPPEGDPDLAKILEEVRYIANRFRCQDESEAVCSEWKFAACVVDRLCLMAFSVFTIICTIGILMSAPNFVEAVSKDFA

With `COc1cccc(OC)c1CNC(=O)C1C2COc3ccccc3C21` (stereo not drawn) [Example A17, exo-N-[(2,6-dimethoxyphenyl)methyl]-1,1a,2,7b-tetrahydrocyclopropa[c][1]benzopyran-1-carboxamide] the EC50 (electrophysiology EC50 values) was 1100 nM and the EC50 (potency class) was 500 to 5000 nM.

In the case of `CC(C)(NC(=O)C1C2COc3ccc(F)cc3C21)c1cccc(Cl)c1` (stereo not drawn) [Example A18, exo-N-[2-(3-chlorophenyl)propan-2-yl]-6-fluoro-1,1a,2,7b-tetrahydrocyclopropa[c][1]benzopyran-1-carboxamide], the EC50 (electrophysiology EC50 values) is reported as 2500 nM and the EC50 (potency class) is reported as 500 to 5000 nM.

With `O=C(N[C@H]1CCOc2cc(F)c(F)cc21)C1C2COc3ccccc3C21` (stereo partly drawn) [Example A19, exo-N-[(4S)-6,7-difluoro-3,4-dihydro-2H-1-benzopyran-4-yl]-1,1a,2,7b-tetrahydrocyclopropa[c][1]benzopyran-1-carboxamide] the EC50 (electrophysiology EC50 values) was 1600 nM and the EC50 (potency class) was 500 to 5000 nM.

`O=C(N[C@@H](C(F)F)C1CCCCC1)C1C2COc3ccccc3C21` (stereo partly drawn) [Example A20, exo-N-[(1R)-1-cyclohexyl-2,2-difluoroethyl]-1,1a,2,7b-tetrahydrocyclopropa[c][1]benzopyran-1-carboxamide] gave an EC50 (electrophysiology EC50 values) of 570 nM and an EC50 (potency class) of 500 to 5000 nM.

Work on `CCOc1ccc([C@H](COC)NC(=O)C2C3Oc4ccccc4C32)cc1` (stereo partly drawn) [Example B1, exo-N-[(1R)-1-(4-ethoxyphenyl)-2-methoxyethyl]-1a,6b-dihydro-1H-cyclopropa[b][1]benzofuran-1-carboxamide] yielded an EC50 (electrophysiology EC50 values) of 1200 nM and an EC50 (potency class) of 500 to 5000 nM.

Molecule `CCOc1ccc([C@H](COC)NC(=O)C2C3Oc4ccccc4C32)cc1` (stereo partly drawn) [Example B2, exo-N-[(1R)-1-(4-ethoxyphenyl)-2-methoxyethyl]-1a,6b-dihydro-1H-cyclopropa[b][1]benzofuran-1-carboxamide] has an EC50 (electrophysiology EC50 values) of 1500 nM and an EC50 (potency class) of 500 to 5000 nM.

Work on `CCOc1ccc([C@H](COC)NC(=O)C2C3Oc4ccccc4C32)cc1` (stereo partly drawn) [Example B3, exo-N-[(1R)-1-(4-ethoxyphenyl)-2-methoxyethyl]-1a,6b-dihydro-1H-cyclopropa[b][1]benzofuran-1-carboxamide] yielded an EC50 (electrophysiology EC50 values) of 470 nM and an EC50 (potency class) of 100 to 500 nM.

`CCOc1ccc([C@H](COC)NC(=O)C2C3Oc4ccc(F)cc4C32)cc1` (stereo partly drawn) [Example B4, exo-N-[(1R)-1-(4-ethoxyphenyl)-2-methoxyethyl]-5-fluoro-1a,6b-dihydro-1H-cyclopropa[b][1]benzofuran-1-carboxamide] gave an EC50 (electrophysiology EC50 values) of 940 nM and an EC50 (potency class) of 500 to 5000 nM.

`CCOc1ccc([C@H](COC)NC(=O)C2C3Oc4ccc(F)cc4C32)cc1` (stereo partly drawn) [Example B5, exo-N-[(1R)-1-(4-ethoxyphenyl)-2-methoxyethyl]-5-fluoro-1a,6b-dihydro-1H-cyclopropa[b][1]benzofuran-1-carboxamide] was tested, and the EC50 (electrophysiology EC50 values) was 760 nM and the EC50 (potency class) was 500 to 5000 nM.

`CCOc1ccc([C@H](COC)NC(=O)C2C3Oc4c(Cl)cccc4C32)cc1` (stereo partly drawn) [Example B6, exo-3-chloro-N-[(1R)-1-(4-ethoxyphenyl)-2-methoxyethyl]-1a,6b-dihydro-1H-cyclopropa[b][1]benzofuran-1-carboxamide] gave an EC50 (potency class) of 100 to 500 nM.

Molecule `CCOc1ccc([C@H](COC)NC(=O)C2C3Oc4c(Cl)cccc4C32)cc1` (stereo partly drawn) [Example B7, exo-3-chloro-N-[(1R)-1-(4-ethoxyphenyl)-2-methoxyethyl]-1a,6b-dihydro-1H-cyclopropa[b][1]benzofuran-1-carboxamide] has an EC50 (electrophysiology EC50 values) of 480 nM and an EC50 (potency class) of 100 to 500 nM.

For `CCOc1ccc([C@H](COC)NC(=O)C2C3Oc4c(Br)cccc4C32)cc1` (stereo partly drawn) [Example B8, exo-3-bromo-N-[(1R)-1-(4-ethoxyphenyl)-2-methoxyethyl]-1a,6b-dihydro-1H-cyclopropa[b][1]benzofuran-1-carboxamide], the EC50 (electrophysiology EC50 values) was 280 nM and the EC50 (potency class) was 100 to 500 nM.

Molecule `CCOc1ccc([C@H](COC)NC(=O)C2C3Oc4c(Br)cccc4C32)cc1` (stereo partly drawn) [Example B9, exo-3-bromo-N-[(1R)-1-(4-ethoxyphenyl)-2-methoxyethyl]-1a,6b-dihydro-1H-cyclopropa[b][1]benzofuran-1-carboxamide] has an EC50 (electrophysiology EC50 values) of 390 nM and an EC50 (potency class) of 100 to 500 nM.

For `CCOc1ccc([C@H](COC)NC(=O)C2C3Oc4ccc(-c5c(C)noc5C)cc4C32)cc1` (stereo partly drawn) [Example B10, exo-5-(3,5-dimethyl-1,2-oxazol-4-yl)-N-[(1R)-1-(4-ethoxyphenyl)-2-methoxyethyl]-1a,6b-dihydro-1H-cyclopropa[b][1]benzofuran-1-carboxamide], the EC50 (electrophysiology EC50 values) was 2800 nM and the EC50 (potency class) was 500 to 5000 nM.

`CCOc1ccc([C@H](COC)NC(=O)C2C3Oc4ccc(-c5cncnc5)cc4C32)cc1` (stereo partly drawn) [Example B11, exo-N-[(1R)-1-(4-ethoxyphenyl)-2-methoxyethyl]-5-(pyrimidin-5-yl)-1a,6b-dihydro-1H-cyclopropa[b][1]benzofuran-1-carboxamide] gave an EC50 (potency class) of 5000 to 50000 nM.

`CCOc1ccc([C@H](COC)NC(=O)C2C3c4ccccc4N(C(C)=O)C23)cc1` (stereo partly drawn) [Example B12, exo-2-acetyl-N-[(1R)-1-(4-ethoxyphenyl)-2-methoxyethyl]-1,1a,2,6b-tetrahydrocyclopropa[b]indole-1-carboxamide] was tested, and the EC50 (electrophysiology EC50 values) was 1300 nM and the EC50 (potency class) was 500 to 5000 nM.

With `CCOc1ccc([C@H](COC)NC(=O)[C@@H]2[C@H]3Oc4ccnc(OC)c4[C@H]32)cc1` [Example B13, exo-N-[(1R)-1-(4-ethoxyphenyl)-2-methoxyethyl]-6-methoxy-1a,6b-dihydro-1H-cyclopropa[4,5]furo[3,2-c]pyridine-1-carboxamide] the EC50 (electrophysiology EC50 values) was 1100 nM and the EC50 (potency class) was 500 to 5000 nM.

With `CCOc1ccc([C@H](COC)NC(=O)C2C3Oc4ccc(C#N)cc4C32)cc1` (stereo partly drawn) [Example B14, exo-5-cyano-N-[(1R)-1-(4-ethoxyphenyl)-2-methoxyethyl]-1a,6b-dihydro-1H-cyclopropa[b][1]benzofuran-1-carboxamide] the EC50 (potency class) was 500 to 5000 nM.

With `CCOc1ccc([C@H](COC)NC(=O)C2C3Oc4cc(Br)ccc4C32)cc1` (stereo partly drawn) [Example B15, exo-4-bromo-N-[(1R)-1-(4-ethoxyphenyl)-2-methoxyethyl]-1a,6b-dihydro-1H-cyclopropa[b][1]benzofuran-1-carboxamide] the EC50 (electrophysiology EC50 values) was 480 nM and the EC50 (potency class) was 100 to 500 nM.

`CCOc1ccc([C@H](COC)NC(=O)C2C3Oc4ccc(C#N)cc4C32)cc1` (stereo partly drawn) [Example B16, exo-5-cyano-N-[(1R)-1-(4-ethoxyphenyl)-2-methoxyethyl]-1a,6b-dihydro-1H-cyclopropa[b][1]benzofuran-1-carboxamide] gave an EC50 (electrophysiology EC50 values) of 4100 nM.

Molecule `CCOc1ccc([C@H](COC)NC(=O)C2C3Oc4cc(OC)ccc4C32)cc1` (stereo partly drawn) [Example B17, exo-N-[(1R)-1-(4-ethoxyphenyl)-2-methoxyethyl]-4-methoxy-1a,6b-dihydro-1H-cyclopropa[b][1]benzofuran-1-carboxamide] has an EC50 (electrophysiology EC50 values) of 630 nM and an EC50 (potency class) of 500 to 5000 nM.

Work on `CCOc1ccc([C@H](COC)NC(=O)C2C3Oc4cccc(Br)c4C32)cc1` (stereo partly drawn) [Example B18, exo-6-bromo-N-[(1R)-1-(4-ethoxyphenyl)-2-methoxyethyl]-1a,6b-dihydro-1H-cyclopropa[b][1]benzofuran-1-carboxamide] yielded an EC50 (electrophysiology EC50 values) of 1000 nM and an EC50 (potency class) of 500 to 5000 nM.

Molecule `CCOc1ccc([C@H](COC)NC(=O)C2C3Oc4cccc(Br)c4C32)cc1` (stereo partly drawn) [Example B19, exo-6-bromo-N-[(1R)-1-(4-ethoxyphenyl)-2-methoxyethyl]-1a,6b-dihydro-1H-cyclopropa[b][1]benzofuran-1-carboxamide] has an EC50 (electrophysiology EC50 values) of 72 nM and an EC50 (potency class) of no more than 100 nM.

From patent US20240368109A1, “ALLOSTERIC MODULATORS OF NICOTINIC ACETYLCHOLINE RECEPTORS” (MERCK SHARP & DOHME LLC, priority 2021, published 2024)
